{
  "source": "patent US6194173A",
  "about": "“Binding proteins for phosphoinositides, GRP1 or general receptor 1 for phophoinositide” (priority 1999, dated 2001)",
  "key": {"[1]": {"molecular_target": "T1, GRP (Mus musculus, UniProt O08967)", "T1 construct": "GST (N, cleaved yes); made in house; host or cells: GRP from pGEX-4T; ARF1 from baculovirus-infected Sf-9 cells", "T1 sequence (O08967 1-399)": "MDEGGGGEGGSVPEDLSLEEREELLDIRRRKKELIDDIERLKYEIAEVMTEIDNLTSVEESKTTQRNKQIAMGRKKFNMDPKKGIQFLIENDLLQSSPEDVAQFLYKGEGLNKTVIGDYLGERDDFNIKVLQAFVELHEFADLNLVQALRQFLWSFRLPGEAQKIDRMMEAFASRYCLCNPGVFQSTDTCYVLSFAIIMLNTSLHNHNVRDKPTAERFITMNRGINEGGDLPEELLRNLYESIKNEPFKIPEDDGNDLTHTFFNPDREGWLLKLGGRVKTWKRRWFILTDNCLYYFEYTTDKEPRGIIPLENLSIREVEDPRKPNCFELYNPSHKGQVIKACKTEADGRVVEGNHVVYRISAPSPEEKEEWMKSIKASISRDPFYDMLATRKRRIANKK", "test": "Inhibition by inositol phosphates of PtdIns(3,4,5)P3-stimulated GRP-mediated ARF1 exchange", "format": "biochemical", "settings": "100 μM inositol phosphate, 0.05% cholate and 0.05% CHAPS"}, "[2]": {"molecular_target": "T2, GSTPH(GRP) (Mus musculus, UniProt O08967)", "T2 construct": "residues 239 to 399 (PH domain); made in house; host or cells: bacteria", "T2 sequence (O08967 239-399)": "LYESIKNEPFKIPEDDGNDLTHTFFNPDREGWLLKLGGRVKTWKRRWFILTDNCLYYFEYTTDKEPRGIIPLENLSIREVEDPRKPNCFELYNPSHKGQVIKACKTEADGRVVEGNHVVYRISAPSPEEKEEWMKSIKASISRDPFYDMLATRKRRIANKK", "test": "Competition of [32P]PI(3,4,5)P3 binding to GST-PH by inositol phosphate head groups", "design": "species or system murine", "source_text": "To generate the GST fusion proteins, PCR reactions using the primers: […] (SEQ ID NO:9) and […] (SEQ ID NO:10) for the GST-N construct, […] (SEQ ID NO:11) and […] (SEQ ID NO:12) for the GST-Sec7 construct, […] (SEQ ID NO:13) and […] (SEQ ID NO:14) for the GSTPH construct, and […] (SEQ ID NO:15) and […] (SEQ ID NO:16) for the GSTGRP constructs. The sequences of the PCR products were verified, and cloned into pGEX-5X-3 in the EcoRI and Xba 1 sites. The bacteria were lysed and the fusion proteins were bound to gluthathione agarose according to standard procedures. Elution was effected by incubation of the beads with one volume 20 mM Hepes, 100 mM NaCl, 1 mM dithiotreitol (H buffer) supplemented with 10 mM gluthatione and 1% sodium cholate, and the eluate was dialyzed extensively against H buffer. For binding assays, protein was bound to nitrocellulose using a BIO-RAD BIO-DOT™ apparatus, using 150 pmol per well for binding assays and 7.5 pmol for competition assays. The nitrocellulose was washed in assay buffer, and 3 mm circles of the filters containing the protein were cut out and incubated in […] assay buffer with the relevant lipids and competitors for 2 h under constant agitation. The filters were washed four times with 1 mL assay buffer and counted in a scintillation counter.\nThe specificity of the GRP PH domain for binding [^32 P]PI(3,4,5,)P3 was also examined with respect to competition by the inositol phosphate head groups of the phosphoinositides. […] More specifically, 25,000 cpm of [^32 P]PI(3,4,5)P3 was incubated with varying concentrations of inositol 1 ,3,4,5P4 and bound radioactivity determined. The amount of radioactivity bound was calculated as percent of that bound in the absence of competitor. The values are means of quadruplicate measurements, and the error bars are standard deviations. The lack of inhibition by the latter two phosphoinositides is particularly striking since they carry the same charge as the inhibitor […] The concentration of inositol 1,3,4,5-P4 that inhibited binding of [^32 p]PI(3,4,5,)P3 half maximally was about 3-6 μM (FIG. 5A). Taken together, the data in FIGS. 4 and 5 indicate extraordinary specificity of the GRP PH domain for PI(3,4,5)P3. […] The binding to GST fusion proteins containing amino acids 462-569 of murine Sos or amino acid 13-115 of murine IRS-1 was assayed using 150 pmoles of protein bound to the filters. Competition of binding to 7.5 pmoles of GST-PH was measured in the presence of 100 μM of the competitors. The values were calculated as in (A), and are means of quadruplicate measurements and the error bars represent standard deviations."}, "[3]": {"system": "PH domain of PLCγ1", "settings": "cited from earlier work"}, "[4]": {"molecular_target": "T3, PH domain of GRP (Mus musculus, UniProt O08967)", "T3 sequence (O08967 239-399)": "T2 sequence (O08967 239-399)", "test": "Binding of [3H]dioctanoyl PtdIns(3,4,5)P3 to GST-PH of GRP", "design": "GST fused to the PH region of GRP (amino acids 239-399); made in house; host or cells: bacteria", "protocol": "Binding assays were performed as described in (Rameh, L. E. et al., J. Biol. Chem., In Press). Briefly, GST fused to the PH region of GRP (amino acids 239-399) was bound to glutathione immobilized on agarose beads (Sigma). Synthetic [^3 H]-labeled diotanoyl PtdIns(3,4,5)P3 was added, and after one hour the beads were separated from the supernatant by centrifugation. The amount of [^3 H]-PtdIns(3,4,5)P3 bound to the PH domain was calculated by subtracting the amount of free [^3 H] present in supernatants from GST-GRP from the amount of free [^3 H] in supernatants from control GST. The data was fitted to the equation [bound]=Bmax×[free]/(KD + [free]) by least squares curve fit. For the competition assays the beads containing the GST-fusion proteins were incubated with 2.5 μM[^3 H]-labeled dioctanoyl PtdIns(3,4,5)P3 bound was calculated based on the amount of [^3 H] bound to the beads in the absence of competitor. […]\nThe data depicted in FIG. 8 indicate that receptor signaling through PI3-kinases, which generates PtdIns(3,4,5)P3, may specifically regulate ARF proteins through GRP. In order to further test this, the relative binding affinities of PtdIns(3,4,5)P3 versus PtdIns (4,5)P2, which is constitutively present in cell membranes, for the PH domain of GRP were determined. […] These experiments show high affinity binding of this polyphosphoinositide,with a calculated Kd=0.5 μM."}, "[5]": {"molecular_target": "T3, PH domain of GRP", "test": "Competition for [3H]dioctanoyl PtdIns(3,4,5)P3 binding to the PH domain of GRP", "design": "GST fused to the PH region of GRP (amino acids 239-399); made in house; host or cells: bacteria", "settings": "identical fatty acyl side chains (dioctanoyl)", "protocol": "Binding assays were performed as described in (Rameh, L. E. et al., J. Biol. Chem., In Press). Briefly, GST fused to the PH region of GRP (amino acids 239-399) was bound to glutathione immobilized on agarose beads (Sigma). Synthetic [^3 H]-labeled diotanoyl PtdIns(3,4,5)P3 was added, and after one hour the beads were separated from the supernatant by centrifugation. The amount of [^3 H]-PtdIns(3,4,5)P3 bound to the PH domain was calculated by subtracting the amount of free [^3 H] present in supernatants from GST-GRP from the amount of free [^3 H] in supernatants from control GST. The data was fitted to the equation [bound]=Bmax×[free]/(KD + [free]) by least squares curve fit. For the competition assays the beads containing the GST-fusion proteins were incubated with 2.5 μM[^3 H]-labeled dioctanoyl PtdIns(3,4,5)P3 bound was calculated based on the amount of [^3 H] bound to the beads in the absence of competitor. The total [^3 H] bound to the GST control was less then 0.5% of the total [^3 H] bound to GRP PH domain. The data was fitted to the equation % bound=100-n×L/Klapp +L) where n is the % specific binding, L is the concentration of unlabeled lipid added and Klapp is the apparent competitive dissociation constant. The rations of the apparent dissociation constants accurately reflect the ratios of the true dissociation constants under the present experimental conditions (Rameh, L. E. et al., J. Biol. Chem., In Press).\nThe data depicted in FIG. 8 indicate that receptor signaling through PI3-kinases, which generates PtdIns(3,4,5)P3, may specifically regulate ARF proteins through GRP. In order to further test this, the relative binding affinities of PtdIns(3,4,5)P3 versus PtdIns (4,5)P2, which is constitutively present in cell membranes, for the PH domain of GRP were determined. A GST fusion protein of the PH domain of GRP was incubated with various concentrations of synthetic [^3 H]dioctanoyl PtdIns(3,4,5)P3 and binding was determined (FIG. 9A). These experiments show high affinity binding of this polyphosphoinositide,with a calculated Kd=0.5 μM."}},
  "note": "Like-named read-outs stand apart in the source and are kept apart here.",
  "data": [
    {"smiles": "O=P(O)(O)O[C@@H]1[C@H](O)[C@H](O)[C@@H](OP(=O)(O)O)[C@H](OP(=O)(O)O)[C@H]1O", "note": "[Ins(1,4,5)P3, D-myo-inositol 1,4,5 trisphosphate]", "values": [
      {"measurement": "inhibition of PtdIns(3,4,5)P3-stimulated GRP-mediated ARF1 guanine nucleotide exchange", "setting": "[1]", "result": "failed to inhibit"},
      {"measurement": "inhibition of [^32 P]PI(3,4,5)P3 binding to GST-PH(GRP)", "setting": "[2]; 100 μM competitor", "result": "little or no effect"},
      {"measurement": "binding of inositol phosphate to GRP polypeptides", "setting": "[2]; statement in the description", "result": "not"},
      {"measurement": "interaction with isolated PH domain of PLCγ1", "setting": "[3]", "result": "high affinity"}
    ]},
    {"smiles": "CCCCCCCC(=O)OCC(COP(=O)(O)O[C@H]1[C@H](O)[C@@H](OP(=O)(O)O)[C@H](OP(=O)(O)O)[C@@H](OP(=O)(O)O)[C@H]1O)OC(=O)CCCCCCC", "note": "(stereo partly shown) [[^3 H]dioctanoyl PtdIns(3,4,5)P3]", "values": [
      {"measurement": "Kd", "setting": "[4]", "result": 0.51, "unit": "µM"},
      {"measurement": "Kd", "setting": "[4]; synthetic [^3 H]dioctanoyl PtdIns(3,4,5)P3", "result": 0.5, "unit": "µM"}
    ]},
    {"smiles": "CCCCCCCC(=O)OC[C@H](COP(=O)(O)O[C@H]1[C@H](O)[C@@H](OP(=O)(O)O)[C@H](OP(=O)(O)O)[C@@H](OP(=O)(O)O)[C@H]1O)OC(=O)CCCCCCC", "note": "[dioctanoyl PtdIns(3,4,5)P3]", "values": [
      {"measurement": "affinity, fold higher compared to PtdIns(4,5)P2", "setting": "[5]", "result": "50-100 fold"}
    ]}
  ]
}
